# Experimental data taken from article PMC10892093 (Pharmaceutics, 2024).
# Legend:
# [1] = system: human liver microsomes (HLM); assay: Inhibition of R- and S-oxazepam glucuronidation in human liver microsomes; conditions: read-out: IC50, oxazepam glucuronidation (marginal or no inhibition)
# Protocol: (§1) A Waters Corp BEH C18 Acquity UPLC column (1.7 µM, 2.1 × 100 mm) was used at a constant temperature of 40 °C for chromatographic separation. An elution gradient was used for 6.5 min with mobile phases A (5 mM ammonium formate) and B (100% methanol) under the following conditions: 90% A for 0.5 min, followed by a linear gradient for 3 min to 60% A, 1 min at 5% A, and re-equilibration for 1 min at 90% A.
# (§2) The reaction was initiated by the addition of 4 mM UDPGA as the cofactor and incubated for 2 h at 37 °C. The reaction was terminated by adding 30 µL of an ice-cold stop solution (acetonitrile/methanol; 1:1). The reaction mixtures were centrifuged at 17,000× g for 30 min at 4 °C, and the supernatant was transferred to UPLC sample glass vial for analysis using UPLC–MS/MS (described above). […] As a positive control for inhibition assays, ketoconazole (10 μM and 100 µM) was used as a potential inhibitor of the UGTs 1A9, 2B7, and 2B15. Reactions containing only the cannabinoid vehicle (3% methanol) and without any inhibitor (cannabinoids) were used as a baseline reaction for 100% enzyme activity, while a reaction without UDPGA was used as a negative control. All experiments were performed in three independent experiments.
# (§3) Determination of IC50 and Ki Values. […] The nonspecific binding constants (fu,inc) for cannabinoids in HEK293 microsomes, HLM, and HKM were previously determined and used to calculate the inhibition by unbound (‘free’) cannabinoid in each reaction. A nonlinear regression analysis and the following equation were used to calculate the IC50 values:(1) y = Bottom +Top − Bottom / 1 + 10^x − LogIC50A where ‘Bottom’ is the maximum observed inhibition (lowest percent activity) and ‘Top’ is the minimum observed inhibition (highest percent activity) for a given cannabinoid.
# The inhibition constant (Ki) was generated from the in vitro IC50 values assuming competitive inhibition (based on the Cheng–Prusoff equation; [49]). Considering that there have been no reports of the irreversible inhibition (e.g., mechanism-based inhibition) of UGTs, competitive inhibition was assumed as the worst-case scenario (highest inhibition) among all feasible types of reversible inhibitions. The substrate concentration used in the incubations was below the reported Km; therefore, the Ki values were predicted using Equation (2):(2) Ki=IC50/S/Km+1 where Km is Michaelis–Menten constant for the substrate, S is the substrate concentration, and IC50 is half-maximal inhibitory concentration.
# UGT1A9 = biological target: T1, UGT1A9 (Homo sapiens, UniProt O60656); assay: Inhibition of R-oxazepam glucuronidation in rUGT1A9 microsomes (UGT-overexpressing HEK293); type: biochemical
# T1 construct: expressed in transfected cells; microsomal fraction
# T1 sequence (O60656 26-530): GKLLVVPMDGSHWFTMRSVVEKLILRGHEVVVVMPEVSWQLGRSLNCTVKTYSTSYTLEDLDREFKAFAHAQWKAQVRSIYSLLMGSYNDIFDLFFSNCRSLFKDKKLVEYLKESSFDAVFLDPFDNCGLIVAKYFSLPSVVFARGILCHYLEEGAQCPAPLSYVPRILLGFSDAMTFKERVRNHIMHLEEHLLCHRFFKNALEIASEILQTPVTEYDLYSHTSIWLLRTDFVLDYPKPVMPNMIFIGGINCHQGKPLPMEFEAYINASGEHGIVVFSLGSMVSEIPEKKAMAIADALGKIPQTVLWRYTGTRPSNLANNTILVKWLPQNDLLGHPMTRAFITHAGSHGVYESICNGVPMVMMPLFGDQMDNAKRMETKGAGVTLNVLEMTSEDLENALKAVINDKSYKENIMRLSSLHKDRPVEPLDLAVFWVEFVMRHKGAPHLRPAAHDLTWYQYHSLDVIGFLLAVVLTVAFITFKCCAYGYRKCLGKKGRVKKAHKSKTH
# Protocol: (§4) Human embryonic kidney cells (HEK293) stably overexpressing the single UGTs 1A9, 2B7, and 2B15 have been previously established and described. Cells were grown in DMEM supplemented with 350 μg/mL of geneticin and 10% FBS and harvested in PBS. Microsomal fractions of UGT-overexpressing cell lines were prepared by differential centrifugation using previously described protocols. Briefly, cell homogenates were prepared by resuspending pelleted cells in PBS, followed by five rounds of freeze–thaw cycles prior to homogenization. Recombinant microsomes (rUGTs) were prepared by centrifuging the cell homogenate at a low speed (9000× g for 30 min) followed by ultracentrifugation (34,000× g for 60 min), with the total protein subsequently determined using a BCA assay. Recombinant microsomes (UGT1A9 and 2B7) and homogenates (UGT2B15) were used for inhibition studies.
# as §1, §2, §3
# UGT2B7 = biological target: T2, UGT2B7 (Homo sapiens, UniProt P16662); assay: Inhibition of R- and S-oxazepam glucuronidation in rUGT2B7 microsomes (UGT-overexpressing HEK293); type: biochemical
# T2 construct: expressed in transfected cells; microsomal fraction
# T2 sequence (P16662 24-529): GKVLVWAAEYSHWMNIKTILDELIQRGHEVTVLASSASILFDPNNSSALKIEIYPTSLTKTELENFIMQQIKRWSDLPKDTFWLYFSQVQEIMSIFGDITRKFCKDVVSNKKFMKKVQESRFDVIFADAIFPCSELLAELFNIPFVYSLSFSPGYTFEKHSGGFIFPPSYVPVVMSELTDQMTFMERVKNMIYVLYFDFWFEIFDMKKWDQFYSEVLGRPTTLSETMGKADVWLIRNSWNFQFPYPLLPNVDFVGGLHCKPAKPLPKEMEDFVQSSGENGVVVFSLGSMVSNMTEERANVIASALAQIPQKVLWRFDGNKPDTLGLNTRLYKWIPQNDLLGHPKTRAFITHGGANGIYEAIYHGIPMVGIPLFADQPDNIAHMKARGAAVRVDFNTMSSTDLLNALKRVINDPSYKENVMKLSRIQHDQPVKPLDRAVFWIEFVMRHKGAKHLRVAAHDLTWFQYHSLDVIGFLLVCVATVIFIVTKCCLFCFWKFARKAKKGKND
# Protocol: as §4, §1, §2, §3
# [2] = system: human kidney microsomes (HKM); assay: Inhibition of R- and S-oxazepam glucuronidation in human kidney microsomes; conditions: read-out: IC50, oxazepam glucuronidation (marginal or no inhibition)
# Protocol: as §1, §2, §3
# UGT2B15 = biological target: T3, UGT2B15 (Homo sapiens, UniProt P54855); assay: Inhibition of S-oxazepam glucuronidation in rUGT2B15 homogenate/microsomes (UGT-overexpressing HEK293); type: biochemical
# T3 construct: expressed in transfected cells; cell homogenate
# T3 sequence (P54855 24-530): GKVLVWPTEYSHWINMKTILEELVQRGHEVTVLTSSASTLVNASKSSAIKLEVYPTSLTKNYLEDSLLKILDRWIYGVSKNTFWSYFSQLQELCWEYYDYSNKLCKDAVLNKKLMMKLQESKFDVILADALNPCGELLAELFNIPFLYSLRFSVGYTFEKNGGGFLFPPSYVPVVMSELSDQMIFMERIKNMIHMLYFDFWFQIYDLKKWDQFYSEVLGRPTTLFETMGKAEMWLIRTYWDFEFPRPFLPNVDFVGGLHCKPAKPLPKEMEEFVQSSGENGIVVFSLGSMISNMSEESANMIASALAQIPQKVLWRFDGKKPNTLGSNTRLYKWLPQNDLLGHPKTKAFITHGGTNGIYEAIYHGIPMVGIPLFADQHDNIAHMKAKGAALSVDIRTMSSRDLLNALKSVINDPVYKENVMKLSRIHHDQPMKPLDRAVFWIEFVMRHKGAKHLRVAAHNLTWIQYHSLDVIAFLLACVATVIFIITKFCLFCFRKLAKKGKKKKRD
# Protocol: as §4, §1, §2, §3
# [3] = value set for the static model; cited from earlier work
# [4] = rUGT2B7 microsomes, 100 µM cannabinoid
smiles,measurement,setting,value
"CCCCCc1cc(O)c2c(c1)OC(C)(C)[C@@H]1CCC(C(=O)O)=C[C@@H]21 [11-COOH-THC, 11-nor-9-carboxy-Δ^9-tetrahydrocannabinol]",IC50,[1],> 100 µM
same,Inhibition of R-oxazepam glucuronide formation,"UGT1A9; rUGT1A9 microsomes, 100 µM cannabinoid, vs control without cannabinoid",80%
same,IC50,"UGT1A9; read-out: IC50, oxazepam glucuronidation (marginal or no inhibition), recombinant UGT microsomes (rUGT1A9)",> 100 µM
same,Inhibition of R-oxazepam glucuronidation,UGT2B7; [4],45%
same,Inhibition of S-oxazepam glucuronidation,UGT2B7; [4],55%
same,IC50,"UGT2B7; read-out: IC50, oxazepam glucuronidation (marginal or no inhibition), recombinant UGT microsomes (rUGT2B7)",> 100 µM
same,IC50,[2],> 100 µM
same,IC50,"UGT2B15; read-out: IC50, oxazepam glucuronidation (marginal or no inhibition), recombinant UGT microsomes (rUGT2B15)",> 100 µM
CC(=O)N1CCN(c2ccc(OCC3COC(Cn4ccnc4)(c4ccc(Cl)cc4Cl)O3)cc2)CC1 (stereo not drawn) [ketoconazole],"inhibition at 2 h, 100 µM","UGT1A9; human, pH 7.4, probe R,S-oxazepam 4 µM, oxazepam glucuronide formation, rUGT1A9 microsomes, 100 µM ketoconazole, range over the three enzymes",49 to 85%
same,"inhibition at 2 h, 100 µM","UGT2B7; human, pH 7.4, probe R,S-oxazepam 60 µM, oxazepam glucuronide formation, Inhibition of oxazepam glucuronide formation, rUGT2B7 microsomes, 100 µM ketoconazole, range over the three enzymes",49 to 85%
same,"inhibition at 2 h, 100 µM","UGT2B15; human, pH 7.4, probe R,S-oxazepam 12 µM, oxazepam glucuronide formation, rUGT2B15 microsomes, 100 µM ketoconazole, range over the three enzymes",49 to 85%
"O=C1Nc2ccc(Cl)cc2C(c2ccccc2)=NC1O (stereo not drawn) [oxazepam, Oxazepam]",fm (fractional metabolism via glucuronidation),[3],0.8
